A word on the half-life: it is the time needed for the level to fall by half in the phase considered. The low end stands for rapid decline, the high end for slow decline. By Ki is commonly meant a dissociation constant, usually derived from enzyme kinetics or from competition with a known ligand. Low values mean tighter binding, high ones weaker binding.

The nature of one series: in vitro. The conditions noted are these: human, plasma.
Series [1] deals with T1, human β-FXIIa (Homo sapiens, UniProt P00748).
T1 construct: human β-FXIIa, a naturally occurring proteolytic product of FXIIa comprising only the catalytic domain; purchased Molecular Innovations HFXIIAB
T1 sequence (P00748 373-615 limits assumed, other chains not shown): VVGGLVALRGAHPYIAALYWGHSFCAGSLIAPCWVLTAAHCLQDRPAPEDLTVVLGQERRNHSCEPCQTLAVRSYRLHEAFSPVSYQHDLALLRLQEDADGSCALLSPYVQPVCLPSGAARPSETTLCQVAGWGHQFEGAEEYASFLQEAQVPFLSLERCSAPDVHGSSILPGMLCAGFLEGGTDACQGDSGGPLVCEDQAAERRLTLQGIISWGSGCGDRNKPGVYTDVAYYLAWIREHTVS
The series is described as follows: Protease inhibition assay (Example 3). Format: biochemical. The conditions noted are these: for improvement of Ki / binding: relative to FXII618 (1). The protocol:
The inhibitory activity of the synthesized bicyclic peptides was determined by incubation with the protease and quantification of the residual activity at various peptide concentrations using a fluorogenic substrate. A 2 mM (by weight) stock solution in H2O was made for each peptide. For the assay, serial dilutions were made from the peptide stock solution using aqueous buffer containing 10 mM TRIS, 150 mM NaCl, 10 mM MgCl (hexahydrate), 1 mM CaCl2 (dihydrate), 0.01% (v/v) Triton X-100, 0.1% (w/v) BSA and pH adjusted to 7.4. The final concentration of human 3-FXIIa (HFXIIAB; Molecular Innovations) was 1 nM or 0.5 nM. […] The final concentration of the fluorogenic substrate Boc-Q-G-R-AMC (Bachem) was 50 μM and the final DMSO content was 5%. The fluorescence was measured using an Infinite M200 Pro plate reader (Tecan) with filters 368 nm for excitation and 467 nm for emission. The measurement was performed for 60 min with a read every minute at 25° C. IC50 and Ki values were calculated using GraphPad Prism 5 software.

Series [2] concerns the target T1, human β-FXIIa. Briefly: Protease inhibition assay (Example 2). The class given is biochemical. Particulars: for improvement of inhibitory activity / affinity: relative to parent peptide 2.
Procedure: The inhibitory activity of bicyclic peptides was determined by incubation with proteases and quantification of their residual activity with a fluorogenic substrate. Residual enzymatic activities were measured in buffer containing 10 mM Tris-CI, pH 7.4, 150 mM NaCl, 10 mM MgCl2, 1 mM CaCl2, 0.1% w/v BSA, 0.01% v/v Triton-X100, and 5% v/v DMSO in a volume of 150 μL. In a first series of experiments 50 μM of the fluorogenic substrate Z-Gly-Gly-Arg-AMC and 2.5 nM of enzyme (human p-FXIIa, HFXIIAB; Molecular Innovations) was used.
Dilutions of peptides were prepared ranging from 0.00001-4 μM. Fluorescence intensity was measured with an Infinite M200Pro fluorescence plate reader (excitation at 368 nm, emission at 467 nm; Tecan, Männedorf, Switzerland). The reactions were performed at 25° C., Sigmoidal curves were fitted to the data using the following dose response equation wherein x=peptide concentration, y=% activity of reaction without peptide, A1=100%, A2=0%, p=1. IC50 values were derived from the fitted curve.

Starred links: 1 amine or outer side, 2 acyl side, 3 side chain; linkers in the order of their positions; H or OH if unused. Positions of bridges follow the written chain, without caps; N, C: chain ends. Non-standard residues stand in square brackets, D forms with d. Residues, ends and D or L forms follow the SMILES beside them. TATA = O=C(CC[*:1])N1CN(C(=O)CC[*:2])CN(C(=O)CC[*:3])C1; Phe(4-F) = N[C@@H](Cc1ccc(F)cc1)C(=O)O; β3hR = N=C(N)NCCC[C@H](N)CC(=O)O

Procedure for in vitro: Peptide (2 μl of 2 mM in H2O) was added to 398 μl human plasma (final peptide concentration was 10 μM in 400 μl final volume). The mixture was incubated in the water bath at 37° C. At 8 different time points (0 h, 30 min, 1 h, 2 h, 4 h, 8 h, 12 h, 24 h and in some cases 48 h) a sample of 30 μl was removed, diluted to 200 μl with the same buffer used for protease inhibition assay (see above) and heat-inactivated for 20 min at 65° C. During this step proteases present in plasma are being inactivated, that would otherwise interfere with the subsequently performed enzymatic assay. […] Before analysis, plasma samples were centrifuged for 5 min at 16′000 g and the supernatant was collected. A twofold dilution series ranging from 0.0005-0.5 μM was prepared. IC50 values were derived from the fitted curve using the equation indicated above. Residual inhibition in % was calculated using the following formula: IC50, 0h/IC50, xh*100 wherein IC50, 0h is the functional strength of the inhibitor at time point 0 and IC50, xh the functional strength of inhibitor after one of the different plasma incubation period mentioned above.
The activity of the plasma proteases was heat-inactivated by incubation of the samples at 65° C. for 10 minutes.

In the series “in vitro”, `CC(C)C[C@@H]1NC(=O)[C@H](CCC(N)=O)NC(=O)[C@H](Cc2c[nH]cn2)NC(=O)[C@@H]2CSCCC(=O)N3CN(CN(C3)C(=O)CCSC[C@H](NC(=O)[C@@H](CO)NC(=O)[C@H](N)CCCNC(=N)N)C(=O)N[C@@H](Cc3ccc(F)cc3)C(=O)N[C@@H](CCCNC(=N)N)C(=O)N[C@@H](CC(C)C)C(=O)N3CCC[C@H]3C(=O)N2)C(=O)CCSC[C@@H](C(=O)N[C@@H](CCCNC(=N)N)C(N)=O)NC(=O)C[C@H](CCCNC(=N)N)NC1=O` [JS33] (H-[dR][dS]C[Phe(4-F)]RLPCHQL[β3hR]CR-NH2; linker 3-8-13 via TATA; N-terminus and C-terminus assumed) had a half-life at 10 μM of 144 ± 30 h. Regarding `CC(C)C[C@@H]1NC(=O)[C@H](CCC(N)=O)NC(=O)[C@H](Cc2c[nH]cn2)NC(=O)[C@@H]2CSCCC(=O)N3CN(CN(C3)C(=O)CCSC[C@H](NC(=O)[C@@H](CO)NC(=O)[C@H](N)CCCNC(=N)N)C(=O)N[C@@H](Cc3ccc(F)cc3)C(=O)N[C@@H](CCCNC(=N)N)C(=O)N[C@@H](CC(C)C)C(=O)N3CCC[C@H]3C(=O)N2)C(=O)CCSC[C@@H](C(=O)N[C@@H](CCCNC(=N)N)C(N)=O)NC(=O)[C@H](CCCNC(=N)N)NC1=O` [JS34] (H-[dR][dS]C[Phe(4-F)]RLPCHQLRCR-NH2; linker 3-8-13 via TATA; N-terminus and C-terminus assumed), the half-life at 10 μM in the series “in vitro” is 38.7 h. In turn, `CC(C)C[C@@H]1NC(=O)[C@H](CCC(N)=O)NC(=O)[C@H](CCCNC(=N)N)NC(=O)[C@@H]2CSCCC(=O)N3CN(CN(C3)C(=O)CCSC[C@H](NC(=O)[C@@H](CO)NC(=O)[C@H](N)CCCNC(=N)N)C(=O)N[C@@H](Cc3ccc(F)cc3)C(=O)N[C@@H](CCCNC(=N)N)C(=O)N[C@@H](CC(C)C)C(=O)N3CCC[C@H]3C(=O)N2)C(=O)CCSC[C@@H](C(=O)N[C@@H](CCCNC(=N)N)C(N)=O)NC(=O)C[C@H](CCCNC(=N)N)NC1=O` [JS35] (H-[dR][dS]C[Phe(4-F)]RLPCRQL[β3hR]CR-NH2; linker 3-8-13 via TATA; N-terminus and C-terminus assumed) gave a half-life at 10 μM in “in vitro” of 21.9 h. On to `CC(C)C[C@@H]1NC(=O)[C@H](CCC(N)=O)NC(=O)[C@H](CCCNC(=N)N)NC(=O)[C@@H]2CSCCC(=O)N3CN(CN(C3)C(=O)CCSC[C@H](NC(=O)[C@@H](N)CCCNC(=N)N)C(=O)N[C@@H](Cc3ccccc3)C(=O)N[C@@H](CCCNC(=N)N)C(=O)N[C@@H](CC(C)C)C(=O)N3CCC[C@H]3C(=O)N2)C(=O)CCSC[C@@H](C(=O)N[C@@H](CCCNC(=N)N)C(N)=O)NC(=O)C[C@H](CCCNC(=N)N)NC1=O` [compound 100], for which, on human β-FXIIa [1], the affinity, expressed as Ki, was 5.4 ± 0.1 nM and the “improvement of Ki / binding” value is 4 fold. As to `CC(C)C[C@@H]1NC(=O)[C@H](CCC(N)=O)NC(=O)[C@H](CCCNC(=N)N)NC(=O)[C@@H]2CSCCC(=O)N3CN(CN(C3)C(=O)CCSC[C@H](NC(=O)[C@@H](N)CCCNC(=N)N)C(=O)N[C@@H](Cc3ccccc3)C(=O)N[C@@H](CCCNC(=N)N)C(=O)N[C@@H](CC(C)C)C(=O)N3CCC[C@H]3C(=O)N2)C(=O)CCSCC[C@@H](C(=O)N[C@@H](CCCNC(=N)N)C(N)=O)NC(=O)C[C@H](CCCNC(=N)N)NC1=O` [compound 107], the Ki on human β-FXIIa [1] worked out at 18 ± 2 nM. Take `CC(C)C[C@@H]1NC(=O)[C@H](CCC(N)=O)NC(=O)[C@H](CCCNC(=N)N)NC(=O)[C@@H]2CSCCC(=O)N3CN(CN(C3)C(=O)CCSC[C@H](NC(=O)[C@@H](N)CCCNC(=N)N)C(=O)N[C@@H](Cc3ccccc3)C(=O)N[C@@H](CCCCN)C(=O)N[C@@H](CC(C)C)C(=O)N3CCC[C@H]3C(=O)N2)C(=O)CCSC[C@@H](C(=O)N[C@@H](CCCNC(=N)N)C(=O)N[C@@H](Cc2c[nH]c3ccccc23)C(N)=O)NC(=O)[C@H](CCCNC(=N)N)NC1=O` [peptide 10] (H-RCFKLPCRQLRCRW-NH2; linker 2-7-12 via TATA): the “reduction of inhibitory activity / affinity” value on human β-FXIIa [2] (relative to parent peptide (peptide 2 or peptide 1)) came to 10 fold. Take `Cc1cccc(C[C@@H]2NC(=O)[C@@H](NC(=O)[C@@H](N)CCCNC(=N)N)CSCCC(=O)N3CN4CN(C3)C(=O)CCSC[C@H](NC(=O)[C@@H]3CCCN3C(=O)[C@H](CC(C)C)NC(=O)[C@H](CCCNC(=N)N)NC2=O)C(=O)N[C@@H](CCCNC(=N)N)C(=O)N[C@@H](CCC(N)=O)C(=O)N[C@@H](CC(C)C)C(=O)N[C@@H](CCCNC(=N)N)C(=O)N[C@H](C(=O)N[C@@H](CCCNC(=N)N)C(=O)N[C@@H](Cc2c[nH]c3ccccc23)C(N)=O)CSCCC4=O)c1` [peptide 52]: the “improvement of inhibitory activity / affinity” value at human β-FXIIa [2] was determined as 2.5 fold. In the case of `CC(C)C[C@@H]1NC(=O)[C@H](CCC(N)=O)NC(=O)[C@H](CCCNC(=N)N)NC(=O)[C@@H]2CSCCC(=O)N3CN(CN(C3)C(=O)CCSC[C@H](NC(=O)[C@@H](N)CCCNC(=N)N)C(=O)N[C@@H](Cc3cccnc3)C(=O)N[C@@H](CCCNC(=N)N)C(=O)N[C@@H](CC(C)C)C(=O)N3CCC[C@H]3C(=O)N2)C(=O)CCSC[C@@H](C(=O)N[C@@H](CCCNC(=N)N)C(=O)N[C@@H](Cc2c[nH]c3ccccc23)C(N)=O)NC(=O)[C@H](CCCNC(=N)N)NC1=O` [peptide 54], on human β-FXIIa [2], the “improvement of inhibitory activity / affinity” value was “around 3 fold”. Consider `CC(C)C[C@@H]1NC(=O)[C@H](CCC(N)=O)NC(=O)[C@H](CCCNC(=N)N)NC(=O)[C@@H]2CSCCC(=O)N3CN(CN(C3)C(=O)CCSC[C@H](NC(=O)[C@@H](N)CCCNC(=N)N)C(=O)N[C@@H](Cc3ccccc3F)C(=O)N[C@@H](CCCNC(=N)N)C(=O)N[C@@H](CC(C)C)C(=O)N3CCC[C@H]3C(=O)N2)C(=O)CCSC[C@@H](C(=O)N[C@@H](CCCNC(=N)N)C(=O)N[C@@H](Cc2c[nH]c3ccccc23)C(N)=O)NC(=O)[C@H](CCCNC(=N)N)NC1=O` [peptide 56], for which, at human β-FXIIa [2], the “improvement of inhibitory activity / affinity” value came out at 2 fold.

`CC(C)C[C@@H]1NC(=O)[C@H](CCC(N)=O)NC(=O)[C@H](CCCNC(=N)N)NC(=O)[C@@H]2CSCCC(=O)N3CN(CN(C3)C(=O)CCSC[C@H](N)C(=O)N[C@@H](Cc3ccccc3)C(=O)N[C@@H](CCCNC(=N)N)C(=O)N[C@@H](CC(C)C)C(=O)N3CCC[C@H]3C(=O)N2)C(=O)CCSC[C@@H](C(=O)N[C@@H](CCCNC(=N)N)C(N)=O)NC(=O)[C@H](CCCNC(=N)N)NC1=O` [peptide 62] (H-CFRLPCRQLRCR-NH2; linker 1-6-11 via TATA): the Ki on human β-FXIIa [2] is 932 ± 80 nM. The compound `CC(C)C[C@@H]1NC(=O)[C@H](CCC(N)=O)NC(=O)[C@H](CCCNC(=N)N)NC(=O)[C@@H]2CSCCC(=O)N3CN(CN(C3)C(=O)CCSC[C@H](NC(=O)[C@@H](N)CCNC(=N)N)C(=O)N[C@@H](Cc3ccccc3)C(=O)N[C@@H](CCCNC(=N)N)C(=O)N[C@@H](CC(C)C)C(=O)N3CCC[C@H]3C(=O)N2)C(=O)CCSC[C@@H](C(=O)N[C@@H](CCCNC(=N)N)C(N)=O)NC(=O)[C@H](CCCNC(=N)N)NC1=O` [peptide 71] registered a Ki at human β-FXIIa [2] of 18.5 to 43.1 nM. In addition, the half-life at 10 μM in “in vitro” is 21.7 ± 2.5 h. As to `CC(C)C[C@@H]1NC(=O)[C@H](CCC(N)=O)NC(=O)[C@H](CCCNC(=N)N)NC(=O)[C@@H]2CSCCC(=O)N3CN(CN(C3)C(=O)CCSC[C@H](NC(=O)[C@@H](N)CCCNC(=N)N)C(=O)N[C@@H](Cc3ccccc3)C(=O)N[C@@H](CCCNC(=N)N)C(=O)N[C@@H](CC(C)C)C(=O)N3CCC[C@H]3C(=O)N2)C(=O)CCSCC[C@@H](C(=O)N[C@@H](CCCNC(=N)N)C(N)=O)NC(=O)[C@H](CCCNC(=N)N)NC1=O` [peptide 105], at human β-FXIIa [1], the “improvement of Ki / binding” value was 1.3 fold.

Source of the values: patent US20180118786A1, “NOVEL lNHIBITORS OF THE ENZYME ACTIVATED FACTOR XII (FXIIA)” (ECOLE POLYTECHNIQUE FEDERALE DE LAUSANNE (EPFL), priority 2015, published 2018).
